One experiment addresses T1, hG9a (Homo sapiens, UniProt Q96KQ7).
T1 construct: transfected with a plasmid encoding full length HA-hG9a and treated with 2 μM UNC0646; expressed in transfected cells; host or cells: Cos-7
T1 sequence (Q96KQ7 1-1210): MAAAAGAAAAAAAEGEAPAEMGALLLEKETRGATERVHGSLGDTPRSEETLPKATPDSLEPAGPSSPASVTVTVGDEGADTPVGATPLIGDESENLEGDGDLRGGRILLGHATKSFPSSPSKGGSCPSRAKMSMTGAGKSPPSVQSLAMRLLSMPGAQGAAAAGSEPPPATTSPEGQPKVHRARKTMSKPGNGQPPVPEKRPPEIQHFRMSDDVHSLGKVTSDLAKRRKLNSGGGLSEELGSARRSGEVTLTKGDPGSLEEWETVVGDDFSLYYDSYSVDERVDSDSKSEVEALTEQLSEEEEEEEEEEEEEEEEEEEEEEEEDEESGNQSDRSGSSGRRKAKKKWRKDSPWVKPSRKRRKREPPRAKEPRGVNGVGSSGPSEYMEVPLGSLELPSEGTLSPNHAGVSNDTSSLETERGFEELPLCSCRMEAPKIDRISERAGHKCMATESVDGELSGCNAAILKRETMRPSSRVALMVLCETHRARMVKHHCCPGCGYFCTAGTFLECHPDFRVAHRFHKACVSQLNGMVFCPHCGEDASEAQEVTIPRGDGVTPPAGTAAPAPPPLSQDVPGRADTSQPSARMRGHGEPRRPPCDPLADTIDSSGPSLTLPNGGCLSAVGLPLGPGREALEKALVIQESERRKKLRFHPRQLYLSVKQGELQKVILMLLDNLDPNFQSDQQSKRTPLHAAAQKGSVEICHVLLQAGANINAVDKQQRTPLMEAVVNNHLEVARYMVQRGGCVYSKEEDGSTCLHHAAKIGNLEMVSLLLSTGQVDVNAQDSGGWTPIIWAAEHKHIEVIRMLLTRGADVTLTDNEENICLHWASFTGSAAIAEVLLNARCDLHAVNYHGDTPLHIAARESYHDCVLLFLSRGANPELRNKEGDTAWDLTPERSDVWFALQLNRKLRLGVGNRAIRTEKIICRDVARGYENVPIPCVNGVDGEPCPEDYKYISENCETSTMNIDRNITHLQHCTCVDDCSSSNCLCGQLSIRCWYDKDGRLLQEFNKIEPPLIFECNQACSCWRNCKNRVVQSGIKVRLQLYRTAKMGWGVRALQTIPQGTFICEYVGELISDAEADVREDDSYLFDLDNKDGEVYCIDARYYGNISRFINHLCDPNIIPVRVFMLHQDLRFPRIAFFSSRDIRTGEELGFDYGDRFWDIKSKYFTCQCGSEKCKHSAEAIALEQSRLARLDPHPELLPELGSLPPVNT
Kind of experiment: Methylation of HA-hG9a in Cos-7 cells (pan met-K immunoprecipitation/immunoblot). It counts as cell-based, African green monkey. The settings on record: Cos-7 cells, 2 μM inhibitor, 24 h.

For experiment [1], the system named is GR target genes in A549 cells. Kind of experiment: RT-qPCR of endogenous GR target genes in A549 cells. It is filed as cell-based, human. Conditions: 2 μM added 1 h prior to 100 nM dex. As for the experimental part: RNA was isolated using Trizol (Invitrogen) according to the manufacturer's instructions. Reverse transcription reaction was performed using iScript (Biorad) according to specifications with 0.8 μg of total RNA as template. Quantitative PCR amplification of the resulting cDNA was performed on a Roche LightCycler 480 using SYBR green I master mix (Roche). mRNA levels were normalized to the level of β-actin mRNA. Primer sequences are specified below in Tables 6 and 7.
The results as shown in FIGS. 21A-21E generally highlight that G9a and GLP act as coactivators for a subset of endogenous GR target genes. FIG. 21A is an immunoblot showing GLP, G9a and tubulin protein levels in whole cell extracts from A549 cells that were transduced with a control lentivirus encoding a non-specific shRNA (shNS) or lentivirus encoding an shRNA targeting GLP (shGLP). […] Results shown are mean±SEM for five independent experiments. p-value was calculated using a paired t-test. *p≤0.05, **p≤0.01. For FIGS. 21F-1, 21F-2, 21F-3, 21F-4, 21F-5, 21F-6, 21F-7, and 21F-8, mRNA levels for the indicated GR target genes were determined as in FIGS. 21D-1, 21D-2, 21D-3, 21D-4, 21D-5, 21D-6, 21D-7, and 21D-8, using A549 cells which were not transfected with siRNA. […] Results shown are mean±SEM for at least four independent experiments. p-value was calculated using a paired t-test. *p≤0.05, **p≤0.01.

Experimental for hG9a: Cells were transiently transfected (where indicated) using Lipofectamine 2000 (Invitrogen) with 5 μg each of the indicated plasmids according to the manufacturer's protocol. […] Protein extracts were incubated with 1 μg of the indicated primary antibodies overnight at 4° C. with shaking. Protein A/G Plus Agarose (Santa Cruz sc-2003) beads were added and the mixture was incubated 2 hr at 4° C. The immunoprecipitates were separated on SDS-PAGE. Immunoblotting was conducted with primary antibodies against HA epitope (3F10 Roche Applied Science); G9a (G6919), FLAG (F1804), (3-actin (A5441), or GAPDH (G9545) from Sigma; aurora kinase B (ab2254), HP1γ (ab10480), HP1γ (ab56978), phospho-593-HP1γ (ab45270) or pan methyllysine (ab23366) from Abcam; GR (sc-8992) from Santa Cruz; GLP (09-078), or pan phospho-threonine (AB1607) from Millipore; phospho-S211-GR (#4161), H3K9me3 (#13969), H3S10ph (#53348), Histone H3 (#4499) from Cell signaling; or E-cadherin (610182) from BD transduction laboratories. Secondary antibodies from Santa Cruz Biotechnology (anti-rat) and Promega (anti-rabbit and anti-mouse) were used for chemiluminescence detection using Super Signal West Dura (Thermo Scientific) for proteins with low expression levels and ECL prime detection reagent (Amersham) for all other proteins according to the manufacturers' instructions. In immunoprecipitation experiments 3% of the input of each sample was analyzed by immunoblot using the antibodies listed.
Lysates were immunoprecipitated (IP) with pan met-K antibody and immunoblotted with HA antibody (top), or the usage of the two antibodies was reversed (bottom). Expression of HA-tagged proteins and β-actin (loading control) in the unfractionated extracts is shown at the bottom (Input). For FIG. 17D, Cos-7 cells were transfected with a plasmid encoding full length HA-hG9a and treated with 2 μM UNC0646 or vehicle DMSO for 24 h. Lysates were immunoprecipitated with pan met-K antibody and immunoblotted with HA antibody (top), or the usage of the two antibodies was reversed (bottom).
Lysates were immunoprecipitated with pan met-K antibody and immunoblotted with HA antibody (top).

Consider `COc1cc2c(NC3CCN(C4CCCCC4)CC3)nc(N3CCCN(C(C)C)CC3)nc2cc1OCCCN1CCCCC1` [UNC0646], for which the “pan-methyllysine antibody signal on wild type hG9a” value on hG9a was “strongly decreased”. Take `COc1cc2c(Nc3ccc(NC(=O)c4ccccc4)cc3)ncnc2cc1OCCCN1CCOCC1` [ZM447439, N-[4-[[6-methoxy-7-(3-morpholin-4-ylpropoxy)quinazolin-4-yl]amino]phenyl]benzamide]: the “induction of FKBP5, FOXO1 and CITED2 mRNAs by dex” value in experiment [1] (G9a- and GLP-independent genes) is given as “not significantly altered”. Also, the “dex-induced CDH16, ENaCα, PPL, HSD11B2 and CDH1 mRNA levels” value in experiment [1] (G9a/GLP-dependent genes) was “significant increases”.

(Values after US20200181284A1, “EPIGENETIC INHIBITORS FOR SENSITIZING HEMATOLOGIC OR OTHER MALIGNANCIES TO GLUCOCORTICOID THERAPY” (UNIVERSITY OF SOUTHERN CALIFORNIA, priority 2017, published 2020).)
